In US10670605B2, “Cysteine reactive probes and uses thereof” (The Scripps Research Institute, priority 2015, dated 2020):

Tests used:
Assay in all cases: Competitive isoTOP-ABPP in situ (fragment-treated cells)
Assay type in all cases: cell-based
[1] = biological target: T1, cysteines in MDA-MB-231 and Ramos cells (Homo sapiens, UniProt Q13418)
T1 sequence (Q13418 1-452): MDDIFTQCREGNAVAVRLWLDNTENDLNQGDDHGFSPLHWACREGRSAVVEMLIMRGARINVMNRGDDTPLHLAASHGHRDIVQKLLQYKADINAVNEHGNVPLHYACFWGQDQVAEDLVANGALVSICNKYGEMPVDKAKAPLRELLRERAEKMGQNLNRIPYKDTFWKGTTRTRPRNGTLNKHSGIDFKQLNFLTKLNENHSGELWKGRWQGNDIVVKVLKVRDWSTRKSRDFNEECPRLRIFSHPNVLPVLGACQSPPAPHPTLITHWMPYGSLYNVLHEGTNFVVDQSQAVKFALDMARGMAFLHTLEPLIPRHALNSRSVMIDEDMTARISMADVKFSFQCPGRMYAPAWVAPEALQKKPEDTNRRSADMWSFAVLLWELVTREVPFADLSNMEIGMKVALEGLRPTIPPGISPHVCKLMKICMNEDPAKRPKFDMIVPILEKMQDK

[2] = biological target: T2, cysteines in MDA-MB-231 and Ramos cells (Homo sapiens, UniProt Q96AB3)
T2 sequence (Q96AB3 1-205): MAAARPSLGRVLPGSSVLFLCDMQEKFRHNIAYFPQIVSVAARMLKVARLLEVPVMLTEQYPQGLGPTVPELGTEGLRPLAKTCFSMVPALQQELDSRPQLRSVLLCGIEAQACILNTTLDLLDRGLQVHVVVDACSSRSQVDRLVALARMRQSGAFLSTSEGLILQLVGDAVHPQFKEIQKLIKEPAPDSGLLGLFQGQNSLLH

[3] = biological target: T3, cysteines in MDA-MB-231 and Ramos cells (Homo sapiens, UniProt P30101)
T3 sequence (P30101 25-505): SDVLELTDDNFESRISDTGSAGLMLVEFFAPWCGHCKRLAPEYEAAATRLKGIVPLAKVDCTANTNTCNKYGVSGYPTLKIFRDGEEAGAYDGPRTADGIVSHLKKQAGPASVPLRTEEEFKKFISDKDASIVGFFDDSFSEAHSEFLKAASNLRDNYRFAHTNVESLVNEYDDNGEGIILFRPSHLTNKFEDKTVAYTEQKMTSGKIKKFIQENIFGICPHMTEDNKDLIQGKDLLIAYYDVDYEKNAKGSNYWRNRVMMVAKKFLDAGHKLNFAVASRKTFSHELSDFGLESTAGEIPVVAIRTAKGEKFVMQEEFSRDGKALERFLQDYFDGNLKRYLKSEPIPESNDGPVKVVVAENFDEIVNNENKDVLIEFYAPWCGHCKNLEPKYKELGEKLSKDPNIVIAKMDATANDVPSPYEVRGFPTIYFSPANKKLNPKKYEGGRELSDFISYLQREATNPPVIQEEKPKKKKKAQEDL

[4] = biological target: T4, cysteines in MDA-MB-231 and Ramos cells (Homo sapiens, UniProt Q9BTA9)
T4 sequence (Q9BTA9 1-647): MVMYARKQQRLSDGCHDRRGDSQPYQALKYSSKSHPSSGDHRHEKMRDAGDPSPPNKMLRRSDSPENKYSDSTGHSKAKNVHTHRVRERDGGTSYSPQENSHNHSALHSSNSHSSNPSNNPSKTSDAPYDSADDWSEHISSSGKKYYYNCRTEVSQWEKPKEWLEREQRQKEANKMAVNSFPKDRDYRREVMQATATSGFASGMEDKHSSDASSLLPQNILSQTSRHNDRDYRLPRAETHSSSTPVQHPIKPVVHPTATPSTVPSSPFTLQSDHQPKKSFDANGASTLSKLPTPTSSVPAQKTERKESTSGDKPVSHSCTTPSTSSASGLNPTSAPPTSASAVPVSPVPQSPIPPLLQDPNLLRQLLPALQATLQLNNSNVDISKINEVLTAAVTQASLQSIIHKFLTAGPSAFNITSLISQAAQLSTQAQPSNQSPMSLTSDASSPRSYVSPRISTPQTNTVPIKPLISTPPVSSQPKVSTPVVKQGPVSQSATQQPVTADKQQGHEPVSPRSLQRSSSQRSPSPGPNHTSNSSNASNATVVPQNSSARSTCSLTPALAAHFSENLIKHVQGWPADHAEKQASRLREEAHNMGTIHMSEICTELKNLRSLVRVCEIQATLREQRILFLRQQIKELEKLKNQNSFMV

[5] = biological target: T5, cysteines in MDA-MB-231 and Ramos cells (Homo sapiens, UniProt P13667)
T5 sequence (P13667 21-645): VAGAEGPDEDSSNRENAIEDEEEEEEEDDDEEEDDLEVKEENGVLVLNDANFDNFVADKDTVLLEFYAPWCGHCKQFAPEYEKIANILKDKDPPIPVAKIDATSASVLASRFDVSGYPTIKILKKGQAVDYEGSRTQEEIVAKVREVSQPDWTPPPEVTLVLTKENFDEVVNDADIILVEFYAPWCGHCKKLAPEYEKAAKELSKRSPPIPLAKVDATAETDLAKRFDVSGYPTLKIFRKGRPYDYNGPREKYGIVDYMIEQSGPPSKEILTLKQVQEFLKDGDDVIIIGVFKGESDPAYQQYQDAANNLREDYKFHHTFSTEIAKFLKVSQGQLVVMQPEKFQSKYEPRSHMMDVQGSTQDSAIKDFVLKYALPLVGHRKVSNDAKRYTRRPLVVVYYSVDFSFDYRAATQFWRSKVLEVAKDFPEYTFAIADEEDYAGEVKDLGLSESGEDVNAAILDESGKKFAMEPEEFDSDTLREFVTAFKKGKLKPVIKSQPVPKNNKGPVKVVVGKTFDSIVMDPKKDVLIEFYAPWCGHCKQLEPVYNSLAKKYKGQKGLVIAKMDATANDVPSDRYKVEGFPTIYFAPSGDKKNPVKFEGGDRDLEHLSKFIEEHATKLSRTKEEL

[6] = biological target: T6, cysteines in MDA-MB-231 and Ramos cells (Homo sapiens, UniProt Q9BVC5)
T6 sequence (Q9BVC5 1-232): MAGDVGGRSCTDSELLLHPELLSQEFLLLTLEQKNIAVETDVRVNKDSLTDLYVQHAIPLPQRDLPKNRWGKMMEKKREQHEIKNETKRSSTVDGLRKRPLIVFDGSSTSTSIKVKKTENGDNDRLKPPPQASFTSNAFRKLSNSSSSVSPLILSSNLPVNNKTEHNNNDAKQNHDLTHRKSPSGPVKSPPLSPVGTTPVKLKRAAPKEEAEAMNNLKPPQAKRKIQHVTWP

[7] = biological target: cysteines in MDA-MB-231 and Ramos cells (Homo sapiens, UniProt Q15021)
Chain of cysteines in MDA-MB-231 and Ramos cells (Homo sapiens, UniProt Q15021) (Q15021 whole entry): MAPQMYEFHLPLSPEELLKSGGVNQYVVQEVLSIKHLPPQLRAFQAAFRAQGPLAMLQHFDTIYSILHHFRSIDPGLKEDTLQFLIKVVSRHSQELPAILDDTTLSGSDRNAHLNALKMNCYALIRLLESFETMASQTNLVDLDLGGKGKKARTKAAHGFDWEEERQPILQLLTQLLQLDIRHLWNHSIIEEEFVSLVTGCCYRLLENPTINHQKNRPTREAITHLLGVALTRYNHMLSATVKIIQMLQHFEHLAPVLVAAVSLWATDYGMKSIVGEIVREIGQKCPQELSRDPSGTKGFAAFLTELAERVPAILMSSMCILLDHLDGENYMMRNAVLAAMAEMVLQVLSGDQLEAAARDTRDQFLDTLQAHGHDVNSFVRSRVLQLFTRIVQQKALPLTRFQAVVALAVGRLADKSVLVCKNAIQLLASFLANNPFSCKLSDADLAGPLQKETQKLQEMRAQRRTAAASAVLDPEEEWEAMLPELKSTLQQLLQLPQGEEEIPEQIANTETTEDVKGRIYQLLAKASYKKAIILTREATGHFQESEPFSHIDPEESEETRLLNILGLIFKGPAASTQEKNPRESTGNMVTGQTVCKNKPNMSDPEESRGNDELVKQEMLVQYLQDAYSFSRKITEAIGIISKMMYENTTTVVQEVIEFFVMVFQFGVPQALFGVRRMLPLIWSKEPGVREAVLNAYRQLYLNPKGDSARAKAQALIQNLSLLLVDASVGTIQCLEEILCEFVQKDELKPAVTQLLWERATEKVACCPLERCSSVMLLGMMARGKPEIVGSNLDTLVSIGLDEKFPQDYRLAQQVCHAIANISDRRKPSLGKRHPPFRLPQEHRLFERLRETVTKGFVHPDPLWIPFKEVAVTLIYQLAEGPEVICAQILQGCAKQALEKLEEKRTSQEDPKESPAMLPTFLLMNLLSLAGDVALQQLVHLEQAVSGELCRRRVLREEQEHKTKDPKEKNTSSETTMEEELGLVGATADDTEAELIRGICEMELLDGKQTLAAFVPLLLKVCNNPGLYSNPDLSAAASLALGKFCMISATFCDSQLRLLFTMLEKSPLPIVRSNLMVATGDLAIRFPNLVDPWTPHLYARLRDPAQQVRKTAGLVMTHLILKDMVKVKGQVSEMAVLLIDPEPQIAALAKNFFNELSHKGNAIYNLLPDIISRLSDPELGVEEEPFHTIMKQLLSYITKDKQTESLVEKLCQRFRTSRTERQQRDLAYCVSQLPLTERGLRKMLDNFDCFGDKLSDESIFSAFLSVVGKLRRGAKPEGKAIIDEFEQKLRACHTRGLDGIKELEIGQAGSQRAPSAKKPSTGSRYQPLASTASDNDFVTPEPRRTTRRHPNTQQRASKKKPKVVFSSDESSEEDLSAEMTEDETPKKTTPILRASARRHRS

Row | Structure (SMILES) | isoTOP-ABPP ratio Q13418_C346 ([1]; 200 μM, insitu, 231) | isoTOP-ABPP ratio Q96AB3_C114 ([2]; 200 μM, insitu, 231) | isoTOP-ABPP ratio Q15021_C439 ([7]; 200 μM, insitu, 231) | isoTOP-ABPP ratio P30101_C57 ([3]; 200 μM, insitu, 231) | isoTOP-ABPP ratio P30101_C406 ([3]; 200 μM, insitu, 231) | isoTOP-ABPP ratio P13667_C206 ([5]; 200 μM, insitu, 231) | isoTOP-ABPP ratio P13667_C555 ([5]; 200 μM, insitu, 231) | isoTOP-ABPP ratio Q9BVC5_C10 ([6]; 200 μM, insitu, 231) | isoTOP-ABPP ratio Q9BTA9_C553 ([4]; 200 μM, insitu, 231) | other results
1 | COc1ccc2c(c1)CCCN2C(=O)CCl [compound 2] |  |  |  |  |  |  |  |  |  | isoTOP-ABPP reactivity Q13418_C346 ILK ([1]; 200 μM, insitu, 231): 1.4; isoTOP-ABPP reactivity Q96AB3_C114 ISOC2 ([2]; 200 μM, insitu, 231): 1.6; isoTOP-ABPP reactivity P30101_057 PDIA3 ([3]; 200 μM, insitu, 231): 2.2; isoTOP-ABPP reactivity P30101_C406 PDIA3 ([3]; 200 μM, insitu, 231): 3.2; isoTOP-ABPP reactivity Q9BTA9_0553 WAC ([4]; 200 μM, insitu, 231): 17.6; isoTOP-ABPP reactivity P13667_C206 PDIA4 ([5]; 200 μM, insitu, 231): 2.6; isoTOP-ABPP reactivity P13667_C555 PDIA4 ([5]; 200 μM, insitu, 231): 3.2; isoTOP-ABPP reactivity Q9BVC5_C10 C2orf49 ([6]; 200 μM, insitu, 231): 2.7
2 | O=C(CCl)NC(=O)NC12CC3CC(CC(C3)C1)C2 [compound 12] | 0.6 | 1.6 | 6.7 | 20.0 | 20.0 | 16.6 | 20.0 | 2.9 |  | 
3 | O=C(CCl)N1CCN(S(=O)(=O)c2ccccc2F)CC1 [compound 10] | 1.1 | 20.0 | 5.2 | 3.3 | 3.3 | 3.8 | 3.3 | 3.1 | 20.0 | isoTOP-ABPP ratio Q13418_C346 ([1]; 200 μM, insitu, ramos): 8.3; isoTOP-ABPP ratio P30101_C406 ([3]; 200 μM, insitu, ramos): 1.4; isoTOP-ABPP ratio P13667_C555 ([5]; 200 μM, insitu, ramos): 1.4
4 | Cn1cc(S(=O)(=O)N2CCOCC2)cc1C(=O)NC(=O)CCl [compound 11] |  |  |  |  |  |  |  |  |  | isoTOP-ABPP ratio Q13418_C346 ([1]; 100 μM in situ 231): 0.6; isoTOP-ABPP ratio Q96AB3_C114 ([2]; 100 μM in situ 231): 0.9; isoTOP-ABPP ratio Q15021_C439 ([7]; 100 μM in situ 231): 0.9; isoTOP-ABPP ratio P30101_C57 ([3]; 100 μM in situ 231): 2.2; isoTOP-ABPP ratio Q9BTA9_C553 ([4]; 100 μM in situ 231): 1.7; isoTOP-ABPP ratio P13667_C206 ([5]; 100 μM in situ 231): 4.1; isoTOP-ABPP ratio Q9BVC5_C10 ([6]; 100 μM in situ 231): 1.1

Now from value to molecule, other results behind:

Row | isoTOP-ABPP ratio Q13418_C346 ([1]; 200 μM, insitu, 231) | isoTOP-ABPP ratio Q96AB3_C114 ([2]; 200 μM, insitu, 231) | isoTOP-ABPP ratio Q15021_C439 ([7]; 200 μM, insitu, 231) | isoTOP-ABPP ratio P30101_C57 ([3]; 200 μM, insitu, 231) | isoTOP-ABPP ratio P30101_C406 ([3]; 200 μM, insitu, 231) | isoTOP-ABPP ratio P13667_C206 ([5]; 200 μM, insitu, 231) | isoTOP-ABPP ratio P13667_C555 ([5]; 200 μM, insitu, 231) | isoTOP-ABPP ratio Q9BVC5_C10 ([6]; 200 μM, insitu, 231) | isoTOP-ABPP ratio Q9BTA9_C553 ([4]; 200 μM, insitu, 231) | Structure (SMILES) | other results
5 | 0.6 | 1.0 | 0.6 | 1.1 | 1.2 | 1.0 | 1.2 | 1.1 |  | CC(C)CCOCCNC(=O)CCl [compound 27] | 
6 | 0.5 | 4.9 | 0.7 | 1.0 |  | 0.8 |  | 1.5 | 2.8 | O=C(CCl)NC12CC3CC(CC(C3)C1)C2 [compound 21] | 
7 | 0.6 | 0.7 | 0.8 | 1.3 | 1.0 | 1.0 | 1.0 | 1.0 | 1.0 | Cc1ccc(C=C(C#N)C(=O)NCCN2CCOCC2)cc1 [compound 41] | 
